B1: ephrinA1-Fc: recombinant ephrinA1-Fc protein, ligand of the EphA2-Fc receptor (protein)
chain: DRHIVFWNSSNPKFREEDYTVHVQLNDYLDIICPHYEDDSVADAAMERYTLYMVEHQEYVACQPQSKDQVRWNCNRPSAKHGPEKLSEKFQRFTPFILGKEFKEGHSYYYISKPIYHQESQCLKLKVTVNGKITHNPQAHVNPQEKRLQADDPEVQVLHSIGYS
modifications: Ectodomain only, with the C-terminal IgG Fc carrier omitted; The Fc chimera is a disulfide-linked dimer; Limits follow the mature ectodomain without the signal peptide and GPI propeptide, by supplier

Key:
[1] = target: T1, EphA2 (Homo sapiens, UniProt P29317); assay: Phosphorylated-EphA2 sandwich ELISA in PC3 cell lysates; type: cell-based; parameters: their known ability to naturally express EphA2; endogenous in cells; host or cells: PC3 (A5); conditions: PC3 cells, 100 µM
T1 sequence (P29317 24-976): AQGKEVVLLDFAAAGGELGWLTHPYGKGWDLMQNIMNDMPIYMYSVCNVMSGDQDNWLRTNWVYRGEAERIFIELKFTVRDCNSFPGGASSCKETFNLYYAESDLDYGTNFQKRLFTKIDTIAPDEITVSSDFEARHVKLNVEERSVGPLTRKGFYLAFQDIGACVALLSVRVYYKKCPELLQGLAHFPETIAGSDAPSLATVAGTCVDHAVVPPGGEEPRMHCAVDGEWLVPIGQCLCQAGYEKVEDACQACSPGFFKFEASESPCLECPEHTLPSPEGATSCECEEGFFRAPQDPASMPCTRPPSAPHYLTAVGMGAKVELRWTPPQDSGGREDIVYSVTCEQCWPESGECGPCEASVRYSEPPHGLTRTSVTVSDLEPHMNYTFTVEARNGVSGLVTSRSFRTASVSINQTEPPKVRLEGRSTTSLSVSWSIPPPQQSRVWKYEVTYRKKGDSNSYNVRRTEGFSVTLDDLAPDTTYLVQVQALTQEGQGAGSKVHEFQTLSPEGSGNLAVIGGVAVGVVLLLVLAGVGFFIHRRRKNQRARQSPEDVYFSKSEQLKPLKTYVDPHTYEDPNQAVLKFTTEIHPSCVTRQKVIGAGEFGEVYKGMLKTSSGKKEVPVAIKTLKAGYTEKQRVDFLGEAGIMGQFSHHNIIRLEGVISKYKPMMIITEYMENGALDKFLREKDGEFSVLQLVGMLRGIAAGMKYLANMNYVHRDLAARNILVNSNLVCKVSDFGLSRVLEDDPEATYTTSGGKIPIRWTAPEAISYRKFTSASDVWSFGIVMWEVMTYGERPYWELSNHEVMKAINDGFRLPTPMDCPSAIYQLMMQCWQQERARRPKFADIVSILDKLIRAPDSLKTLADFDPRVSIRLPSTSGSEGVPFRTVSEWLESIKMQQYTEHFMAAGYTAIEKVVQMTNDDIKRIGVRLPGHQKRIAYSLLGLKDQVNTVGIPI
Experimental: (§1) Cells were seeded in 12-well plates at concentration of 10^5cells/ml in complete medium until they reached ∼40% confluence and serum starved overnight. The day after cells were treated with compounds under study, vehicle or standard drug, stimulated with the proper agonist, rinsed with sterile PBS and solubilized in lysis buffer. The lysates were resuspended and rocked at 4°C for 30 minutes and then centrifuged at 14000 xg for 5 minutes. The protein content of supernatant was measured with BCA protein assay kit (Thermo scientific), standardized to 200 µg/ml and transferred into a clean test tube ready to be used.
(§2) EphA2-, EphB4- and EGFR-phosphorylation were measured in cell lysates using DuoSet®IC Sandwich ELISA (RnD Systems, #DYC4056, #DYC4057 and #DYC1095, respectively) following manufacturer's protocol. […] The day after wells were washed and blocked for 1 hour at room temperature. After that, wells were washed and 100 µl/well of lysates were added at room temperature for 2 hours; wells were washed and incubated with Detection Antibody at room temperature for 2 hours.
(§3) EphB4 phosphorylation was stimulated with 3 µg/ml ephrinB2-Fc, preclustered with 0.3 µg/ml IgG Fc fragment on T47D cells (G, H, I). […] Phospho-EphA2/B4 levels are relative to ephrinA1/B2-Fc+DMSO. Data are the means of at least three independent experiment ± st. err. One-way ANOVA followed by Dunnet's post test was performed comparing Fc to all other columns for Fig A, D, G and ephrinA1-Fc+DMSO to all other columns for Fig B,C,E, F, H, I. *, p<0.05, **, p<0.01.

[2] = target: T2, EphA2-ephrinA1 binding (Mus musculus, UniProt Q03145); assay: ELISA EphA2-ephrinA1 binding (displacement and saturation); conditions: for decrease of EphA2-ephrinA1 binding: bile acids, repeat of the 200 µM experiment
T2 construct: we immobilized EphA2-Fc- ectodomain on proper ELISA plates; purchased R&D systems 639-A2 (EphA2-Fc); BT602 (biotinylated ephrinA1-Fc)
T2 sequence (Q03145 26-538 limits assumed): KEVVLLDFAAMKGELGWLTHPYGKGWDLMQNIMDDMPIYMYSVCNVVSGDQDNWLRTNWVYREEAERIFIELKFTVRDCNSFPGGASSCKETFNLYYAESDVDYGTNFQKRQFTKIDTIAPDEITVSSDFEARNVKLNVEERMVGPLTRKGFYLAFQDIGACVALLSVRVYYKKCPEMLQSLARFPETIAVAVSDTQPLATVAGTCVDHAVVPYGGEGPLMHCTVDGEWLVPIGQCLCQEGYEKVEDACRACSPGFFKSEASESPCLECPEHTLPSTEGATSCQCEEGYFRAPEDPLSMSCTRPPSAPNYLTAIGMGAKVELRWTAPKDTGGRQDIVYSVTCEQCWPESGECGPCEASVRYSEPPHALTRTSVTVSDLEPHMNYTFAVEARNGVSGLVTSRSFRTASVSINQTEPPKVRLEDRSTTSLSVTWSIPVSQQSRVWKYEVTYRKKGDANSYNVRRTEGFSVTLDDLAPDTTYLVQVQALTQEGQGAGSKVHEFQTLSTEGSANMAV
Experimental: Our chemical collection (Table S1) was stocked in a 20 mM dimethyl sulfoxide (DMSO) solution and we performed binding assay at a concentration of 200 µM. Only compounds displacing more than 40% ephrinA1 from EphA2 receptor were considered for a full concentration-binding curve. […] The day after wells were washed three times with washing buffer (PBS +0.05% tween20, pH 7.5) and blocked with 300 µl of blocking solution (PBS +0.5% BSA) for 1 hour at 37°C. Compounds were added to the wells at proper concentration in 1% dimethyl sulfoxide (DMSO) and incubated at 37°C for 1 hour. Biotinylated ephrinA1-Fc (R&D BT602) was added at 37°C for 4 hours at 30 ng/ml in displacement assays or in a range from 1 to 2000 ng/ml in saturation studies. […] The reaction was stopped with 3N HCl 100 µl/well and the absorbance was measured using an ELISA plate reader (Sunrise, TECAN, Switzerland) at 450 nm.
The IC50 value was determined using one-site competition non-linear regression and Kd values of the curves with or without antagonists were calculated using one-binding site non-linear regression analysis with Prism software (GraphPad Software Inc.). The Ki was obtained using Schild plot where Log[DR-1] is a function of the negative Log10 of the inhibitor concentration. The Hill's coefficient was calculated using linear fitting to evaluate whether the inhibition was competitive or uncompetitive.
To identify compounds interfering with EphA2-ephrinA1 binding we immobilized EphA2-Fc- ectodomain on proper ELISA plates and binding of biotinylated-ephrin-A1-Fc was detected using the colorimetric reaction developed by streptavidine-HRP and tetramethylbenzidine.

[3] = target: T1, EphA2; assay: Phosphorylated-EphA2 sandwich ELISA in HT29 cell lysates; type: cell-based; parameters: their known ability to naturally express EphA2; endogenous in cells; host or cells: HT29 (A6); conditions: HT29 cells, 100 µM
Experimental: as §1, §2, §3

| Molecule | effect on Eph kinase phosphorylation as agonist or antagonist [1] | decrease of EphA2-ephrinA1 binding [2] | effect on Eph kinase phosphorylation as agonist or antagonist [3] | Ki of EphA2-biotinylated-ephrin-A1 binding inhibition ([2]; assay validation, Figure S1) |
| --- | --- | --- | --- | --- |
| C[C@H](CCC(=O)O)[C@H]1CC[C@H]2[C@@H]3[C@H](O)C[C@@H]4C[C@H](O)CC[C@]4(C)[C@H]3CC[C@]12C [CDCA, chenodeoxycholic] | inactive | did not displaced | inactive |  |
| C[C@H](CCC(=O)O)[C@H]1CC[C@H]2[C@@H]3CC[C@@H]4C[C@H](O)CC[C@]4(C)[C@H]3C[C@H](O)[C@]12C [DCA, deoxycholic] | inactive | did not displaced | inactive |  |
| C[C@H](CCC(=O)O)[C@H]1CC[C@H]2[C@@H]3[C@H](O)C[C@@H]4C[C@H](O)CC[C@]4(C)[C@H]3C[C@H](O)[C@]12C [CA, cholic] | inactive | did not displaced | inactive |  |
| B1 |  |  |  | 0.102 µg/mL |

From paper PMC3068151 (PLoS ONE, 2011)
